According to ChEMBL document CHEMBL3352810, “Synthesis and evaluation of novel alkannin and shikonin oxime derivatives as potent antitumor agents” (Bioorg Med Chem Lett, 2014):

Assays:
DU-145 = test: Cytotoxicity against human DU145 cells by MTT assay; format: functional, cell-based
MCF7 [1] = test: Cytotoxicity against human MCF7 cells by MTT assay; format: functional, cell-based
K562 = test: Cytotoxicity against human K562 cells by MTT assay; format: functional, cell-based
[2] = Cytotoxicity against human skin fibroblast cells by MTT assay; format: cell-based
MCF7 [3] = test: Induction of ROS level in human MCF7 cells by flow cytometry relative to control; format: functional
[4] = Alkylation of the compound assessed as Michael addition after 15 mins; format: physicochemical
[5] = Alkylation of the compound assessed as bioreductive alkylation after 15 mins; format: physicochemical

| SMILES | IC50 (DU-145) [nM] | IC50 (MCF7 [1]) [nM] | IC50 (K562) [nM] | IC50 [2] [nM] | Activity (MCF7 [3]) [%] | Activity [4] | Activity [5] |
| --- | --- | --- | --- | --- | --- | --- | --- |
| CC(C)=CC[C@@H](O)C1=CC(=O)c2c(O)ccc(O)c2C1=O [SHIKONIN] | 16000 | 1800 | 700 | 1200 |  |  |  |
| CC(C)=CC[C@H](O)C1=CC(=O)c2c(O)ccc(O)c2C1=O [ALKANNIN] | 19900 | 2400 | 1300 | 1500 |  |  |  |
| CC(C)=CC[C@@H](OC(=O)C=C(C)C)C1=CC(=O)c2c(O)ccc(O)c2C1=O [DIMETHYLACRYLSHIKONIN] |  |  |  |  | 414.8 | Not Active | Not Active |
